Test results taken from patent EP0982318A2, “Enchanced phosphorylation of P53 by ATM in response to DNA damage” (RAMOT UNIVERSITY AUTHORITY FOR APPLIED RESEARCH & …, priority 1998, dated 2000).
Where two headings read alike, the source gives them in different places.

Columns and labels:
ATM [1] = assay: Kinase activity of ATM immunoprecipitated from cells treated with NCS; assay type: cell-based, human
Protocol: (§1) For these experiments, 5X10^6 cells were washed in ice-cold phosphate buffered saline and lysed in 700 µl of 10 mM Tris-HCl (pH 7.5), 150 mM NaCl, 0.2% dodecyl maltoside (Sigma), 5 mM EDTA, 50 mM NaF, 2 mM phenylmethylsulfonylfluoride, 100 µM NaVO4, 2 µg/ml aprotonin (lysis buffer). Freshly prepared cell lysates were incubated for 2 hours at 4°C on a rotator with 10 µl of hybridoma supernatants. Fifty µl of magnetic beads coated with anti-mouse IgG (Dynabeads M-450, DYNAL, Oslo, Norway) were added and the mixture was further rotated at 4°C for 2 hours. Immune complexes were collected using a magnetic stand (DYNAL) and washed 3 times with lysis buffer. For Western blotting analysis, 1/3 of this mixture was loaded on a polyacrylamide-SDS gel which was later blotted onto a nitrocellulose membrane (Nitrocell MFF, Pharmacia Biotech, San Francisco, CA) as previously described [ref 8]. Immune complexes were washed twice with kinase buffer (50 mM Hepes, pH 7.5, 150 mM NaCl, 4 mM MnCl2, 6 mM MgCl2, 10% v/v glycerol, 1 mM DTT, 100 µM NaVO4). […]
Kinase activity was assayed using the p53-N47 substrate. The histogram presents quantitation of the data from the top panel (B). […]
U: untreated cells. The curve presents quantitation of the data from the top panel.

ATM [2] = molecular target: T1, ATM (Homo sapiens, UniProt Q13315); assay: ATM immune complex protein kinase assay (inhibition by wortmannin); assay type: biochemical
T1 construct: endogenous in cells; host or cells: cultured cells, lysed and immunoprecipitated with anti-ATM monoclonal antibody
Protocol: as §1, with “NaVO4). Two hundred ng - 1 µg substrate, 10 µCi [32P]ATP and ATP to final concentration of 5 µM were added, and the reaction mixtures were incubated at 30°C for 3-15 minutes.” for “NaVO4).”
ATM immune complexes were incubated with various concentrations of the drug and washed with the reaction buffer before kinase activity was measured. […]

T1 sequence (Q13315 whole entry): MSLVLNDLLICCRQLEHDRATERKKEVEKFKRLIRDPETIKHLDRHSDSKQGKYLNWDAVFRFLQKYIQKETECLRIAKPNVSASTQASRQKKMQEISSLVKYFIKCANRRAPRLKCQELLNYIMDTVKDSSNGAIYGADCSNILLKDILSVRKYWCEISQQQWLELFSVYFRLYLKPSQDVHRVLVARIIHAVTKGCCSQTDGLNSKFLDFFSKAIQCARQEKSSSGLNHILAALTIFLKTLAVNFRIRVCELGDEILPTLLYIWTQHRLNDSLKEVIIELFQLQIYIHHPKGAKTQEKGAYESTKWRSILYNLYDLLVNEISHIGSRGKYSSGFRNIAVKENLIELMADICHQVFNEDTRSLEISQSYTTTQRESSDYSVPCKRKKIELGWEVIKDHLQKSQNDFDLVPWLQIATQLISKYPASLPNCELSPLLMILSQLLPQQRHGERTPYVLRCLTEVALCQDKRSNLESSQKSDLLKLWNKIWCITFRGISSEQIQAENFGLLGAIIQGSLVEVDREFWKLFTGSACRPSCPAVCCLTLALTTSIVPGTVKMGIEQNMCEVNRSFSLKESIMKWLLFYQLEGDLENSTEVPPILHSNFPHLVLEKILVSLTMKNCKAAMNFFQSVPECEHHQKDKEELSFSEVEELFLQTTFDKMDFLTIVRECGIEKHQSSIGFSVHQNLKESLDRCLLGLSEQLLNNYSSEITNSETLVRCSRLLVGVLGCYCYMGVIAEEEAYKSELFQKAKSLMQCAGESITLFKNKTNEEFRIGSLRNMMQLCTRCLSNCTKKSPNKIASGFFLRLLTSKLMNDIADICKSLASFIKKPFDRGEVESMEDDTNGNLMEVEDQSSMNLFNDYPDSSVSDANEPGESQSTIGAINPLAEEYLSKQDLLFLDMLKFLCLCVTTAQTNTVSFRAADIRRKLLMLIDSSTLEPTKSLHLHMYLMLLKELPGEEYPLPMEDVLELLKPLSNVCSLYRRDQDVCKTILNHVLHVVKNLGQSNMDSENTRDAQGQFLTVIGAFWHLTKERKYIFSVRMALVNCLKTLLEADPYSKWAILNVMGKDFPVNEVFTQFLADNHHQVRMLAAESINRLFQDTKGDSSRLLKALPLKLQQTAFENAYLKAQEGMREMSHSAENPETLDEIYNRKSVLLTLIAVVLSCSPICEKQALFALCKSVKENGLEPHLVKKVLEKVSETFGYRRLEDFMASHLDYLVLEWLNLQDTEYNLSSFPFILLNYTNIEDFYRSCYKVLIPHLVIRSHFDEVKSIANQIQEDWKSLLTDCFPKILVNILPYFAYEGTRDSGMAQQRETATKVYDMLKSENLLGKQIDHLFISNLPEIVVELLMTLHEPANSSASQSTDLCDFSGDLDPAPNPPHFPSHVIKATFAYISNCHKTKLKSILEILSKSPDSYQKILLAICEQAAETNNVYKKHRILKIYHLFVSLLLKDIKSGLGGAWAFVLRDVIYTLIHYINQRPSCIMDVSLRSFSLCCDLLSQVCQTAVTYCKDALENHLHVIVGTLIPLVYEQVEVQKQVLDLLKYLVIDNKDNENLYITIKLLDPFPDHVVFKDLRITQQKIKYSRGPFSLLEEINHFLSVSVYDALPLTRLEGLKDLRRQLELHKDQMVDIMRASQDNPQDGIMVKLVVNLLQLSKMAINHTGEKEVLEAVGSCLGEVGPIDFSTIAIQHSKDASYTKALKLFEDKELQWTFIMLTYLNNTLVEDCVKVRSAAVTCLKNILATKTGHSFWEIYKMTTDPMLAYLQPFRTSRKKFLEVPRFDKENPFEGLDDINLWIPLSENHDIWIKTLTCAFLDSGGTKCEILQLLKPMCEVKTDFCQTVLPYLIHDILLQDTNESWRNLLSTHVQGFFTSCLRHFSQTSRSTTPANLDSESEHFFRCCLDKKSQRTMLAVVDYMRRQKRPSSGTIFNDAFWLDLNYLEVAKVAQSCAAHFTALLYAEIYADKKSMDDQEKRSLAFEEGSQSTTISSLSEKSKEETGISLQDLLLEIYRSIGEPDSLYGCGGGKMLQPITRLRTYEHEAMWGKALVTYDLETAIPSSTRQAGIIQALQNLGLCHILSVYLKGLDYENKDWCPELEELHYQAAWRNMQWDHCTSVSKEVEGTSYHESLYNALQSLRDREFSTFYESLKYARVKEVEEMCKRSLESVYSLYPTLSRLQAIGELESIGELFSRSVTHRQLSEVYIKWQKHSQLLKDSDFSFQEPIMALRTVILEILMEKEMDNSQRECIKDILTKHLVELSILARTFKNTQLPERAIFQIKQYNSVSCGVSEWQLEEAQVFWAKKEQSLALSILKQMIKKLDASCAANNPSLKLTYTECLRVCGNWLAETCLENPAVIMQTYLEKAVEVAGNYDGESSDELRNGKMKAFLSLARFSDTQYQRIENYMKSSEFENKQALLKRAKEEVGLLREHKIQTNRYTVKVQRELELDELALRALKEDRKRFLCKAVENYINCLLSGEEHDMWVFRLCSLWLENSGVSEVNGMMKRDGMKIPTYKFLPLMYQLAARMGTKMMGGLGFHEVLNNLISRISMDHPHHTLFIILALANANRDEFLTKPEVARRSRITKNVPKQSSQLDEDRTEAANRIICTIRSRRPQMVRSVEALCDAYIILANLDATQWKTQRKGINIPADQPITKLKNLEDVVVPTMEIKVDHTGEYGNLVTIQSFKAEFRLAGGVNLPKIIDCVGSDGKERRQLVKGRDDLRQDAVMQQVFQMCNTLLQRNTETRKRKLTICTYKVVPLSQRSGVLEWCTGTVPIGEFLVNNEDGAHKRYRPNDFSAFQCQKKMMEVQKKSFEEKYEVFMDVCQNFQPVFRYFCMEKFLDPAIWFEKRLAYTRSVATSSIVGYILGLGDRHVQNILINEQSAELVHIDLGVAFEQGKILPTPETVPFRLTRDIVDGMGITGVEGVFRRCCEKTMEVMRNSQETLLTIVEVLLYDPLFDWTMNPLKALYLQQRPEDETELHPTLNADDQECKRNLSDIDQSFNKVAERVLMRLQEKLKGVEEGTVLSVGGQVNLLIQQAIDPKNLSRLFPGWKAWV

| Molecule | maximal enhancement of ATM's activity compared to its basal activity (ATM [1]; nine experiments, ATM immunoprecipitated from cells after NCS treatment, p53-N47 substrate) [fold] | time of second enhancement of ATM's activity following treatment (ATM [1]; time course after NCS (50 ng/ml), Figure 3B) | IC50 (ATM [2]) [nM] | IC50 (ATM [2]; ATM immune complexes exposed to wortmannin for 30 minutes and washed before kinase assay, PHAS-I as substrate, activity normalized to amount of ATM protein, read-out: IC50 (sensitivity of ATM-associated kinase activity to wortmannin)) [nM] |
| --- | --- | --- | --- | --- |
| neocarzinostatin [NCS] | 4.4±0.8 | about 120 minutes |  |  |
| COC[C@H]1OC(=O)c2coc3c2[C@@]1(C)C1=C(C3=O)[C@@H]2CCC(=O)[C@@]2(C)C[C@H]1OC(C)=O [wortmannin] |  |  | 80 | 100 |
